Like-named read-outs stand apart in the source and are kept apart here.
What was measured:
Cooperia oncophora = assay: Method C: Cooperia oncophora L1 larvae in vitro; details: 96 h, read-out: inhibition of motility
[1] = system: microfilaria of Dirofilaria immitis; assay: Method F: microfilaria of Dirofilaria immitis, survival at 24 hours
Haemonchus contortus [2] = assay: Method D: Haemonchus contortus in vivo in Mongolian jirds; set-up: species or system Mongolian jirds (Meriones unguiculatus); details: po, 72 h, read-out: reduction in nematode infestation
Haemonchus contortus [3] = assay: Method A: Haemonchus contortus L1 larvae, microtitre plate screen; details: 96 h, read-out: motility inhibition
[4] = Method G: permeability in the Caco-2/TC7 in vitro model; details: human, Caco-2, pH 6.5
[5] = survival of microfilaria at 24 hours

Row | Structure (SMILES) | inhibition at 5 µg/mL (Cooperia oncophora) [%] | EC50 [1, 5] [mg/L] | inhibition in vivo at 30 mg/kg (Haemonchus contortus [2]) [%] | inhibition at 5 µg/mL (Haemonchus contortus [3]) [%] | Papp A→B at 20 μM [4] [nm/s] | EC50 [1] [mg/L] | inhibition in vivo at 30 mg/kg (Haemonchus contortus [2]; in Meriones unguiculatus) [%]
1 | O=C(CO[C@H]1CC[C@H](Nc2ccc([N+](=O)[O-])c(C(F)(F)F)c2)CC1)N1CCN(c2ccc3cc(C(F)(F)F)ccc3n2)CC1 [Compound 89, 2-[(4-[[4-nitro-3-(trifluoromethyl)phenyl]amino]cyclohexyl)oxy]-1-[4-[6-(trifluoromethyl)quinolin-2-yl]piperazin-1-yl]ethan-1-one] | ≥ 90 | < 5 | > 90 | ≥ 90 | – | – | –
2 | O=C(CO[C@H]1CC[C@H](Nc2ccc([N+](=O)[O-])c(C(F)(F)F)c2)CC1)N1CCN(Cc2cc3cc(F)ccc3s2)CC1 [Compound 234, 1-[4-[(5-fluoro-1-benzothiophen-2-yl)methyl]piperazin-1-yl]-2-[[4-[[4-nitro-3-(trifluorometh-yl)phenyl]amino]cyclohexyl]oxy]ethan-1-one] | ≥ 90 | < 0.1 | – | ≥ 90 | 40 | – | –
3 | N#Cc1ccc(N[C@H]2CC[C@H](OCC(=O)N3CCN(Cc4nc5cc(C(F)(F)F)ccc5s4)CC3)CC2)cc1C(F)(F)F [Compound 301] | ≥ 90 | – | – | ≥ 90 | 99 | < 0.1 | –
4 | N#Cc1ccc(N[C@H]2CC[C@H](OCC(=O)N3CCN(c4ccc5cc(Cl)ccc5n4)CC3)CC2)cc1C(F)(F)F [Compound 272, 2-[(4-[[4-cyano-3-(trifluoromethyl)phenyl]amino]cyclohexyl)oxy]-1-[4-(6-chloroquinolin-2-yl)piperazin-1-yl]ethan-1-one] | ≥ 90 | < 1 | 70 to 90 | ≥ 90 | – | – | –
5 | O=C(CO[C@H]1CC[C@H](Nc2ccc([N+](=O)[O-])c(C(F)(F)F)c2)CC1)N1CCN(Cc2cc3cc(Cl)ccc3o2)CC1 [Compound 178, 1-[4-[(5-chloro-1-benzofuran-2-yl)methyl]piperazin-1-yl]-2-[(4-[[4-nitro-3-(trifluoromethyl)phenyl]amino]cyclohexyl)oxy]ethan-1-one] | ≥ 90 | < 1 | – | ≥ 90 | 49 | – | –
6 | O=C(CO[C@H]1CC[C@H](Nc2ccc([N+](=O)[O-])c(C(F)(F)F)c2)CC1)N1CCN(Cc2cc3cc(C(F)(F)F)ccc3o2)CC1 [Compound 180, 2-[(4-[[4-nitro-3-(trifluoromethyl)phenyl]amino]cyclohexyl)oxy]-1-(4-[[5-(trifluoromethyl)-1-benzofuran-2-yl]methyl]piperazin-1-yl)ethan-1-one] | ≥ 90 | < 1 | > 90 | ≥ 90 | – | – | –
7 | O=C(CO[C@H]1CC[C@H](Nc2ccc([N+](=O)[O-])c(C(F)(F)F)c2)CC1)N1CCN(Cc2nc3cc(Cl)ccc3s2)CC1 [Compound 291, 1-[4-[(5-chloro-1,3-benzothiazol-2-yl)methyl]piperazin-1-yl]-2-[4-[4-nitro-3-(trifluoromethyl)anilino]cyclohexoxy]ethanone] | ≥ 90 | – | – | ≥ 90 | 62 | – | –
8 | O=C(CO[C@H]1CC[C@H](Nc2ccc([N+](=O)[O-])c(C(F)(F)F)c2)CC1)N1CCN(Cc2ccc3ccc(C(F)(F)F)cc3n2)CC1 [Compound 328, 2-[4-(4-nitro-3-trifluoromethyl-phenylamino)-cyclohexyloxy]-1-[4-(7-trifluoromethyl-quinolin-2-ylmethyl)-piperazin-1-yl]-ethanone] | ≥ 90 | – | – | ≥ 90 | 72 | – | –
9 | O=C(CO[C@H]1CC[C@H](Nc2ccc([N+](=O)[O-])c(C(F)(F)F)c2)CC1)N1CCN(Cc2nc3cc(C(F)(F)F)ccc3s2)CC1 [Compound 302, 2-[4-[4-nitro-3-(trifluoromethyl)anilino]cyclohexoxy]-1-[4-[[5-(trifluoromethyl)-1,3-benzothiazol-2-yl]methyl]piperazin-1-yl]ethanone] | ≥ 90 | < 0.1 | > 90 | ≥ 90 | – | – | –
10 | O=C(CO[C@H]1CC[C@H](Nc2ccc([N+](=O)[O-])c(C(F)(F)F)c2)CC1)N1CCN(CC2Cc3cc(F)ccc3O2)CC1 (some centres unmarked) [Compound 77] | ≥ 90 | < 5 | > 90 | ≥ 90 | – | – | –
11 | N#Cc1ccc(N[C@H]2CC[C@H](OCC(=O)N3CCN(c4ccc5cc(C(F)(F)F)ccc5n4)CC3)CC2)cc1C(F)(F)F [Compound 273, 2-[(4-[[4-cyano-3-(trifluoromethyl)phenyl]amino]cyclohexyl)oxy]-1-[4-[6-(trifluoromethyl)quinolin-2-yl]piperazin-1-yl]ethan-1-one] | ≥ 90 | < 1 | > 90 | ≥ 90 | – | – | –
12 | O=C(CO[C@H]1CC[C@H](Nc2ccc([N+](=O)[O-])c(C(F)(F)F)c2)CC1)N1CCN(CC2Cc3cc(C(F)(F)F)ccc3O2)CC1 (some centres unmarked) [Compound 78, 2-[(4-[[4-nitro-3-(trifluoromethyl)phenyl]amino]cyclohexyl)oxy]-1-(4-[[5-(trifluoromethyl)-2,3-dihydro-1-benzofuran-2-yl]methyl]piperazin-1-yl)ethan-1-one] | ≥ 90 | < 5 | > 90 | ≥ 90 | – | – | –
13 | N#Cc1ccc(N[C@H]2CC[C@H](OCC(=O)N3CCN(c4ccc5cc(Cl)ccc5c4)CC3)CC2)cc1C(F)(F)F [Compound 278] | ≥ 90 | < 1 | – | ≥ 90 | – | – | 70 to 90
14 | CC(c1cc2cc(F)ccc2o1)N1CCN(C(=O)CO[C@H]2CC[C@H](Nc3ccc([N+](=O)[O-])c(C(F)(F)F)c3)CC2)CC1 (some centres unmarked) [Compound 304, 2-[(4-[[4-nitro-3-(trifluoromethyl)phenyl]amino]cyclohexyl)-oxy]1-[4-[1-(5-fluorobenzofuran-2-yl)ethyl]piperazin-1-yl]ethan-1-one] | ≥ 90 | < 5 | – | ≥ 90 | 90 | – | –
15 | CN(c1ccc([N+](=O)[O-])c(C(F)(F)F)c1)[C@H]1CC[C@H](OCC(=O)N2CCN(c3ccc4cc(C(F)(F)F)ccc4n3)CC2)CC1 [Compound 245, 2-[[(1r,4r)-4-[methyl[4-nitro-3-(trifluoromethyl)phenyl]amino]cyclohexyl]oxy]-1-[4-[6-(trifluoromethyl)quinolin-2-yl]piperazin-1-yl]ethan-1-one] | ≥ 90 | – | > 90 | ≥ 90 | – | < 1 | –
16 | O=C(CO[C@H]1CC[C@H](Nc2ccc([N+](=O)[O-])c(C(F)(F)F)c2)CC1)N1CCN(Cc2cnc3cc(C(F)(F)F)ccc3c2)CC1 [Compound 327, 2-[4-(4-nitro-3-trifluoromethyl-phenylamino)-cyclohexyloxy]-1-[4-(7-trifluoromethyl-quinolin-3-ylmethyl)-piperazin-1-yl]-ethanone] | – | – | 70 to 90 | ≥ 90 | 69 | – | –
17 | O=C(CO[C@H]1CC[C@H](Nc2ccc([N+](=O)[O-])c(C(F)(F)F)c2)CC1)N1CCN(c2nc3cc(C(F)(F)F)ccc3s2)CC1 [Compound 342, 2-[4-(4-nitro-3-trifluoromethyl-phenylamino)-cyclohexyloxy]-1-[4-(5-trifluoromethyl-benzothiazol-2-yl)-piperazin-1-yl]-ethanone] | ≥ 90 | – | > 90 | ≥ 90 | – | – | –
18 | N#Cc1ccc(N[C@H]2CC[C@H](OCC(=O)N3CCN(Cc4nc5cc(F)ccc5s4)CC3)CC2)cc1C(F)(F)F [Compound 294, 4-[[4-[2-[4-[(5-fluoro-1,3-benzothiazol-2-yl)methyl]piperazin-1-yl]-2-oxo-ethoxy]cyclohexyl]amino]-2-(trifluoromethyl)benzonitrile] | – | – | – | ≥ 90 | 82 | < 5 | –
19 | CN(c1ccc(C#N)c(C(F)(F)F)c1)[C@H]1CC[C@H](OCC(=O)N2CCN(c3ccc4cc(C(F)(F)F)ccc4n3)CC2)CC1 [Compound 283, 2-[(4-[methyl[4-cyano-3-(trifluoromethyl)phenyl]amino]cyclohexyl)-oxy]1-[4-[6-(trifluoromethyl)quinolin-2-yl]-piperazin-1-yl]ethan-1-one] | ≥ 90 | – | > 90 | ≥ 90 | – | – | –
20 | O=C(CO[C@H]1CC[C@H](Nc2ccc([N+](=O)[O-])c(C(F)(F)F)c2)CC1)N1CCN(Cc2cc3c(F)c(F)ccc3o2)CC1 [Compound 320, 2-[(4-[[4-nitro-3-(trifluoromethyl)phenyl]amino]cyclohexyl)-oxy]1-[4-(4,5-difluorobenzofuran-2-ylmethyl)piperazin-1-yl]ethan-1-one] | ≥ 90 | – | – | ≥ 90 | 68 | – | –
21 | O=C(CO[C@H]1CC[C@H](Nc2ccc([N+](=O)[O-])c(C(F)(F)F)c2)CC1)N1CCN(Cc2ccc3cc(F)ccc3c2)CC1 [Compound 297, 2-[(4-[[4-nitro-3-(trifluoromethyl)phenyl]amino]cyclohexyl)-oxy]1-[4-(6-fluoronaphthalen-2-ylmethyl)piperazin-1-yl]ethan-1-one] | ≥ 90 | < 1 | – | ≥ 90 | 57 | – | –
22 | N#Cc1ccc(N[C@H]2CC[C@H](OCC(=O)N3CCN(Cc4cc5cc(Cl)ccc5o4)CC3)CC2)cc1C(F)(F)F [Compound 274, 2-[(4-[[4-cyano-3-(trifluoromethyl)phenyl]amino]cyclohexyl)-oxy]1-[4-(5-chlorobenzofuran-2-ylmethyl)piperazin-1-yl]ethan-1-one] | – | – | – | ≥ 90 | 92 | < 1 | –
